Test results: US20170105969A1, “CENICRIVIROC FOR THE TREATMENT OF HIV-2 INFECTION” (Tobira Therapeutics, Inc., priority 2014, published 2017)
“Also recorded” adds a separate entry of the source. Marks after values point to notes of the source that are not given here.

Experiments:
CCR2 = biological target: T1, CCR2 (Homo sapiens, UniProt P41597); assay: CCR2 receptor occupancy / internalization in PBMCs (monocytes) by flow cytometry; format: cell-based
T1 construct: endogenous in cells; host or cells: monocytes within PBMCs from 5 HIV+ and 5 HIV- subjects
T1 sequence (P41597 1-360 isoform P41597-2): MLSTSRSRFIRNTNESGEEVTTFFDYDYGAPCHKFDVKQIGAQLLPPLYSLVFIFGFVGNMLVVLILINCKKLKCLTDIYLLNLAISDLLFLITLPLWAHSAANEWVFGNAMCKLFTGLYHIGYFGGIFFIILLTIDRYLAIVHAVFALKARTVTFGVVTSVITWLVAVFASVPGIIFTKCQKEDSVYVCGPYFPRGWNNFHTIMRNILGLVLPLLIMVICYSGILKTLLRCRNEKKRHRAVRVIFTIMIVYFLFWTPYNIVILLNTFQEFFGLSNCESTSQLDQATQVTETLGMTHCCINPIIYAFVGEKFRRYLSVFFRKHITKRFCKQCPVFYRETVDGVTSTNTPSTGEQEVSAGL
Description: The capacity of each drug to inhibit CCR5 or CCR2 internalization was evaluated. Cell-surface expression of CCR5 and CCR2 was assessed by flow cytometry, and fluorescence values were converted into molecules of equivalent soluble fluorescence (MESF).

CCR5-tropic HIV-1 BaL = assay: PM-1 cells infected with HIV-1 BaL, supernatant P24 and viral load after 4 hours; format: cell-based; conditions: CVC 20 nM or MVC 50 nM
Description: Early (strong-stop) and late (full-length) reverse transcript levels were measured by qPCR. […] P24 and viral load levels were measured by ELISA and qRT-PCR after 4 hours.

CCR1 = biological target: T2, CCR1 (Homo sapiens, UniProt P32246); assay: Ligand binding to CCR1
T2 sequence (P32246 1-355): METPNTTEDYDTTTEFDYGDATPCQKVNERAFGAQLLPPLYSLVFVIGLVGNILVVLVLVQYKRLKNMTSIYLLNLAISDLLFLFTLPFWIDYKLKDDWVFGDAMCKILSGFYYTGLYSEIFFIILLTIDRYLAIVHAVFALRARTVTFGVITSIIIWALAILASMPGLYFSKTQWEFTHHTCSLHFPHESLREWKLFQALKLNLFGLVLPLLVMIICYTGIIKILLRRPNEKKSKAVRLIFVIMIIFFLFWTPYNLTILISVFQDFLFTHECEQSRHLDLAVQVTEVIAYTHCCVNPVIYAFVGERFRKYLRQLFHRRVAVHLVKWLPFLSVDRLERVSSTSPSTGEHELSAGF

CCR5-tropic HIV-1 = assay: Study 201: plasma HIV-1 RNA over 10 days of CVC monotherapy; format: in vivo, human; conditions: for subjects who achieved HIV-1 RNA levels <400 copies/mL: over the entire study; for HIV-1 RNA, LS mean (SEM) change from Baseline / HIV-1 RNA, Median change from Baseline: Day 11
Description: (§1) Subjects were antiretroviral treatment experienced, CCR5 antagonist-naïve, with HIV-1 RNA levels of at least 5000 copies/mL and CD4+ cell counts of at least 250 cells/mm^3. Subjects with HIV-2, hepatitis B virus, or hepatitis C virus co-infection or dual/mixed-tropic HIV-1 were ineligible. Other than their HIV-1 infection, subjects were generally healthy.
In this study, all dose groups received the original formulation (DP3_25), except the 100 mg dose group which received an alternative formulation (DP4_100). […] These subjects were excluded from the efficacy, PK, and PK/PD data, but included in the baseline and safety data. In this study, safety and tolerability were assessed by monitoring AEs, vital signs, ECGs, clinical laboratory values from blood and urine, and physical examinations. Data from all subjects on placebo were pooled for the analyses.

MCP-1 = assay: Study 201: inflammatory markers MCP-1, hs-CRP, IL-6; format: in vivo, human
From the text: Exploratory efficacy endpoints included changes in the inflammatory markers MCP-1, hs-CRP, and IL-6.
as §1

HIV-1 [1] = assay: Study 201: pharmacokinetic/pharmacodynamic relationships (Emax model); format: in vivo, human
From the text: Drug response was characterized using the following maximum effect (Emax) model: […]

HIV-1 [2] = assay: Study 202: virologic response (plasma HIV-1 RNA <50 copies/mL), Snapshot algorithm, ITT; format: in vivo, human; conditions: Week 24
From the text: The primary efficacy endpoint was the percentage of subjects with plasma HIV-1 RNA <50 copies/mL at Week 24 (using the FDA Snapshot algorithm and the ITT population).

HIV-1 [3] = assay: as above; format: in vivo, human

## CCCCOCCOc1ccc(-c2ccc3c(c2)/C=C(/C(=O)Nc2ccc([S@@+]([O-])Cc4cncn4CCC)cc2)CCCN3CC(C)C)cc1 [CVC, (S)-8-[4-(2-Butoxyethoxy)phenyl]-1-isobutyl-N-(4-{[(1-propyl-1H-imidazol-5-yl)methyl]sulfinyl}phenyl)-1,2,3,4-tetrahydro-1-benzazocine-5-carboxamide]
CCR2; CCR2, monocytes
  average concentration required to reach >80% receptor occupancy: 1.8 nM
CCR2; PBMCs
  prevention of MCP-1-induced CCR2 internalization (in words): at lower concentrations than BMS-22
CCR2; in the absence of MCP-1, monocytes
  CCR2 cell-surface expression (in words): induced CCR2 internalization and decreased cell-surface expression on monocytes; also recorded: reduced CCR2 expression on monocytes
CCR2; monocytes
  concentration at which saturation of monocyte CCR2 was reached: 6 nM
CCR2; monocytes, at 6 nM (saturation)
  receptor occupancy at 0.006 µM: ~98%
CCR5-tropic HIV-1 BaL; 0 hrs (baseline)
  supernatant P24: 506 ng/mL
CCR5-tropic HIV-1 BaL; 0 hrs
  viral load: 1.19×10^10 copies/ml
CCR5-tropic HIV-1 BaL; 4 hrs
  supernatant P24: 192 ng/mL
  viral load: 1.26×10^10 copies/ml
CCR1
  inhibition of ligand binding (in words): did not inhibit
CCR5-tropic HIV-1; 25 mg cohort, Baseline
  HIV-1 RNA, Baseline LS mean (SEM): 4.46 (0.18) log10 copies/mL
CCR5-tropic HIV-1; 25 mg dose group
  subjects who achieved HIV-1 RNA levels <400 copies/mL: 1
CCR5-tropic HIV-1; 25 mg once daily
  HIV-1 RNA, Nadir values, Median change from Baseline: −0.7 log10 copies/mL
  Median days to nadir: 10.0 days
  HIV-1 RNA, LS mean (SEM) change from Baseline: −0.64 (0.14) log10 copies/mL
  HIV-1 RNA, Median change from Baseline: −0.5 log10 copies/mL
CCR5-tropic HIV-1; 50 mg cohort, Baseline
  HIV-1 RNA, Baseline LS mean (SEM): 4.33 (0.21) log10 copies/mL
CCR5-tropic HIV-1; 50 mg dose group
  subjects who achieved HIV-1 RNA levels <400 copies/mL: 2
CCR5-tropic HIV-1; 50 mg once daily
  HIV-1 RNA, Nadir values, Median change from Baseline: −1.6 log10 copies/mL
  Median days to nadir: 11.0 days
  HIV-1 RNA, LS mean (SEM) change from Baseline: −1.13 (0.16) log10 copies/mL
  HIV-1 RNA, Median change from Baseline: −1.3 log10 copies/mL
CCR5-tropic HIV-1; 75 mg cohort, Baseline
  HIV-1 RNA, Baseline LS mean (SEM): 4.65 (0.19) log10 copies/mL
CCR5-tropic HIV-1; 75 mg once daily
  HIV-1 RNA, Nadir values, Median change from Baseline: −1.8 log10 copies/mL
  Median days to nadir: 10.0 days
  HIV-1 RNA, LS mean (SEM) change from Baseline: −1.46 (0.15) log10 copies/mL
  HIV-1 RNA, Median change from Baseline: −1.6 log10 copies/mL
CCR5-tropic HIV-1; 150 mg cohort, Baseline
  HIV-1 RNA, Baseline LS mean (SEM): 4.10 (0.19) log10 copies/mL
CCR5-tropic HIV-1; 150 mg dose group
  subjects who achieved HIV-1 RNA levels of <50 copies/mL: 2
  subjects who achieved HIV-1 RNA levels <400 copies/mL: 3
CCR5-tropic HIV-1; 150 mg once daily
  HIV-1 RNA, Nadir values, Median change from Baseline: −1.7 log10 copies/mL
  Median days to nadir: 11.0 days
  HIV-1 RNA, LS mean (SEM) change from Baseline: −1.42 (0.16) log10 copies/mL
  HIV-1 RNA, Median change from Baseline: −1.5 log10 copies/mL
CCR5-tropic HIV-1; Baseline, Day 7, Day 40, all subjects with evaluable samples
  drug resistance testing (in words): remained fully susceptible
MCP-1; 25 mg cohort
  MCP-1, Baseline Mean: 20.0 pg/mL
  MCP-1, Baseline Median: 16.0 pg/mL
MCP-1; 25 mg once daily
  MCP-1, Change from Baseline to Day 10, Median: +25.0 pg/mL
  MCP-1, Day 10 Mean: 75.3 pg/mL
  MCP-1, Day 10 Median: 39.0 pg/mL
MCP-1; 50 mg cohort
  MCP-1, Baseline Mean: 12.6 pg/mL
  MCP-1, Baseline Median: 6.0 pg/mL
MCP-1; 50 mg once daily
  MCP-1, Change from Baseline to Day 10, Median: +56.0 pg/mL
  MCP-1, Day 10 Mean: 101.3 pg/mL
  MCP-1, Day 10 Median: 65.0 pg/mL
MCP-1; 75 mg cohort
  MCP-1, Baseline Mean: 26.6 pg/mL
  MCP-1, Baseline Median: 8.0 pg/mL
MCP-1; 75 mg once daily
  MCP-1, Change from Baseline to Day 10, Median: +36.0 pg/mL
  MCP-1, Day 10 Mean: 59.1 pg/mL
  MCP-1, Day 10 Median: 43.5 pg/mL
MCP-1; 150 mg cohort
  MCP-1, Baseline Mean: 31.6 pg/mL
  MCP-1, Baseline Median: 19.5 pg/mL
MCP-1; 150 mg once daily
  MCP-1, Change from Baseline to Day 10, Median: +322.0 pg/mL
  MCP-1, Day 10 Mean: 372.0 pg/mL
  MCP-1, Day 10 Median: 368.0 pg/mL
MCP-1; 10-day study
  effect on hs-CRP or IL-6 levels (in words): no effect
HIV-1 [1]; HIV-1 RNA, Study 201
  Emax in the PK/PD model: −1.43 log10 copies/mL
HIV-1 [1]; Human immunodeficiency virus 1, 25 mg dose, read-out: percent of the maximum inhibitory effect at average Css (Emax model)
  Emax at 25 mg: 54.9%
HIV-1 [1]; Human immunodeficiency virus 1, 50 mg dose, read-out: percent of the maximum inhibitory effect at average Css (Emax model)
  Emax at 50 mg: 79.8%
HIV-1 [1]; Human immunodeficiency virus 1, 75 mg dose, read-out: percent of the maximum inhibitory effect at average Css (Emax model)
  Emax at 75 mg: 85.9%
HIV-1 [1]; Human immunodeficiency virus 1, 150 mg dose, read-out: percent of the maximum inhibitory effect at average Css (Emax model)
  Emax at 150 mg: 95.9%
HIV-1 [2]; CVC 100 mg
  virologic non-response, subgroup with high baseline viral load (≧100,000 copies/mL): 20%
HIV-1 [2]; CVC 100 mg arm
  HIV-1 RNA ≧400 copies/mL: (7%)
  Treatment difference from EFV arm: 5%
HIV-1 [2]; CVC 200 mg
  virologic non-response, subgroup with high baseline viral load (≧100,000 copies/mL): 29%
HIV-1 [2]; CVC 200 mg arm
  Discontinued study due to AE or death: (2%)
  HIV-1 RNA ≧50 but <400 copies/mL: (7%)^e
  Treatment difference from EFV arm: 4%
HIV-1 [3]; Week 24, CVC 100 mg arm
  HIV-1 RNA ≧50 but <400 copies/mL: (5%)^d
HIV-1 [3]; Week 24, CVC 200 mg arm
  HIV-1 RNA ≧400 copies/mL: (7%)
HIV-1 [3]; Week 48, CVC 100 mg
  virologic non-response, subgroup with high baseline viral load (≧100,000 copies/mL): 20%
HIV-1 [3]; Week 48, CVC 100 mg arm
  Treatment difference from EFV arm: 18%
HIV-1 [3]; Week 48, CVC 200 mg
  virologic non-response, subgroup with high baseline viral load (≧100,000 copies/mL): 21%
HIV-1 [3]; Week 48, CVC 200 mg arm
  Discontinued study due to AE or death: (2%)
  Treatment difference from EFV arm: 16%
HIV-1 [3]; Week 48, both CVC arms
  Week 48 non-response, CVC-treated Black or African American subjects: 8-15%
